According to patent US20240350456A1, “COMPOSITIONS AND METHODS FOR DIAGNOSING AND TREATING INFLAMMATORY CONDITIONS” (RUTGERS, THE STATE UNIVERSITY OF NEW JERSEY, priority 2023, published 2024):
“Also recorded” adds a separate entry of the source.

What was measured:
[1] = tested on: C57BL/6 mice with DSS-induced mild colitis; experiment: DSS induced mild colitis treatment with LGG metabolites (2.5% DSS); assay type: in vivo, mouse; conditions: metabolite i.p. twice
Description: FIG. 13A-13M. IPA requires Ocln to alleviate LPS-induced leaky epithelium. FIG. 13A, experimental design. Organoids were derived from tamoxifen-inducible, intestine-specific Ocln-knockout (KO) mice generated by crossing a floxed Ocln^fl/fl with Villin-CreERT2 mice. FIG. 13B, Representative images and FIG. 13C, quantitative analysis of permeability assay. LPS was added to CCM media (basolateral side) with and without IPA […] and IAM (200 μM) (n=3 mice). *** P<0.001, compared with WT control, †P<0.05 compared with KO-control. FIG. 13D, Representative images of immunofluorescent staining of Ocln in WT control and Ocln KO conventional mice, L=lumen. MNA improves but ASA exacerbates dextran sodium sulfate (DSS)-induced leaky gut. FIG. 13E, experimental design, evaluation in vivo of metabolites (Met). Methylnicotinamide (MNA. […]) and L-argininosuccinate (ASA. 3.6 mg/kg) were administered (i.p.) twice 1-day before and 3 days after DSS treatment p.o. 4 kDa fluorescein isothiocyanate (FITC)-dextran was gavaged 4 h before sacrifice. FIG. 13F, body weight of DSS-treated mice with and without metabolites, FIG. 13G, representative images of Ocln-stained colon sections (green; left panel) and ECad (red; middle). Merged images (yellow; right panel) depict Ocln location in TJ of MNA-treated but not in DSS-only and ASA-treated colon (arrows). Quantitative fluorescent intensity of Ocln (FIG. 13H) and ECad (FIG. 13I) in the TJ, relative to DSS only controls. FIG. 13J, DSS scoring. FIG. 13K, representative H&E images of DSS, DSS+ MNA and DSS+ASA colon sections. FIG. 13L, In vivo permeability as determined by fluorescent intensity of FITC in serum. FIG. 13M, Serum level of interleukin-6.
DSS induced mild colitis treatment with LGG metabolites. To assess in vivo impact of metabolites on gut barrier function, conventional C57BL/6 mice (8 weeks of age) were administered with 2.5% dextran sodium sulfate (DSS) in drinking water to induce mild colitis. Animals were intraperitoneal injected with either PBS vehicle, 30 mg/kg methylnicotinamide chloride, or 3.6 mg/kg argininosuccinic acid dissolved in sterile PBS at Day-1 and Day 4 of the experiment. Body weight was recorded daily. At Day 7, 4 hours before sacrifice and collection of blood, animals were gavaged with 600 mg/kg with 4 kDa FITC-dextran. Blood was collected in 5% EDTA and subsequently centrifuged at 3000 g for 5 minutes for plasma collection. FITC readings were collected by diluting 25 μl of plasma in 75 μl of PBS and analyzed using a Glomax (Promega, GMMTE9032) with Ex490/Em510-570 filter cube module. Serum concentration of interleukin-6 (Cat. No. Biolegend 431304) was also determined. Ileum and colon sections were collected, fixed in 4% paraformaldehyde, processed for embedding in paraffin wax. Pathohistology of intestine was observed by routine H&E staining.

[2] = tested on: leaky gut mouse model (DSS colitis); experiment: DSS (3%) leaky gut colitis mouse model, metabolites i.p.; assay type: in vivo; conditions: 3% DSS; i.p. every other day; listed as ASA
Description: A moderate amount of DSS (3%) creates a leaky gut model.
FIG. 23A, Analysis of plasma ovalbumin levels after oral ovalbumin gavage in mice treated with exogenous MNA or PBS. […] Analysis of fecal lipocalin levels in mice treated with PBS or MNA with or without DSS. […] Representative histology sections of mice treated with PBS or MNA with or without DSS. FIG. 23D, quantification of mouse histology sections scored for colitis index.
FIG. 24A, Analysis of zonula occludens (Tjp1) and occluding (Ocln) mRNA levels after treatment with PBS or MNA with or without DSS. FIG. 24B, Western blot analysis and quantification of Ocln protein levels after treatment with PBS or MNA with or without DSS. FIG. 24C, Quantified levels of occluding in the ileum (top) and colon (bottom) using immunofluorescence antibody staining.
Administration of DSS induces experimental colitis and disrupts gut barrier in vivo in animal models.
Exogenous MNA administration was assessed by plasma ovalbumin levels after oral ovalbumin gavage—an accepted method to determine permeability of the gut paracellular pathway. […] (FIG. 23B) Histology sections of mice treated with or without DSS and PBS or MNA were also obtained. […] Sections from several mice were also examined by a blinded observer and scored for colitis index.
(FIG. 24B) Using immunofluoresce antibody staining, quantified levels of occludin in the ileum and colon were also analyzed.

[3] = tested on: ZO-1 (Tjp1) and Ocln; experiment: Intestinal organoids treated with LPS and metabolites: tight junction (TJ) expression, RT-qPCR and immunostaining; assay type: cell-based, mouse
Description: (§1) Intestinal organoids were isolated as previously described (Das et al., 2015; Pearce et al., 2018). Briefly, crypts were isolated from small intestine of conventional house C57BL/6 male mice (Taconic Laboratories, Hudson, NY) by shaking in isolation buffer (2 mM EDTA in PBS), then, crypts were harvested, processed, and suspended in crypt culture medium (CCM), which consisted of advanced DMEM/F12 (Life Technologies, Carlsbad, CA) supplemented with serum-free B27 (1:50; Life Technologies), N2 (1:100; Life Technologies), N-acetylcysteine (1 mM; Sigma-Aldrich, St. Louis, MO), recombinant murine epithelial growth factor (EGF, 50 ng/ml; Peprotech, Rocky Hill, NJ), Noggin (100 ng/ml; Peprotech), R-Spondin (500 ng/ml; Peprotech), Glutamax-I supplement (1:100; Life Technologies), penicillin/streptomycin (500 μg/ml; Life Technologies), and HEPES ([…]; Life Technologies). Crypts were resuspended in 70% Matrigel (density ˜450 crypts per dome, 2 domes per well in 24-well plate) and allowed to solidify at 37° C. for 20 min. CCM (1.5 mL) was then added to each well. Cultures were incubated in a humidified incubator at 37° C., and CCM was changed daily. Intestinal organoid treatment with LPS and metabolites
(§2) We had 2 series of metabolite-treated organoid experiments, i.e., 1) organoid from conventional C57BL6 mice and 2) Ocln KO and littermate WT control as a gift from Prof. Jerrold Turner (Harvard University). […] Seeding is designated as day 0. On day 3 of culture, the existing media in the wells were completely removed before adding treatments. LPS (1 μg/mL) with or without metabolites, i.e., IPA (0.1 mM) (Li et al., 2021), IAM (200 μM) (Vyhlidalova et al., 2020), MNA (12 ng/ml) (Liu et al., 2015), CARN (20 mM) (Boldyrev et al., 2013) or ASA (1 μM) (Erez et al., 2011) were each added in CCM at known physiological concentrations, incubated for 48 hours, thereafter, organoid was harvested for RNA extraction, and paraformaldehyde fixation for immunostaining.
(§3) Total RNA was extracted from the intestinal organoids using a commercially available kit (RNeasy Microkit; Qiagen, MD, Cat. #74004) following manufacturer's instructions. mRNA samples were converted to cDNA using Bio-Rad's iScript Reverse Transcription Supermix for RT-qPCR (Bio-Rad Laboratories, Hercules, CA, Cat. #1708840). cDNA was then used for RT-qPCR (Mx3000P. Stratagene, La Jolla, CA) to analyze several genes using Maxima SYBR Green qPCR Master Mix (Thermo Fisher Scientific, Waltham, MA) and primers (Integrated DNA Technologies, Coralville, IA). Thermal profile for three-step cycling was 10 min at 95° C. for initial denaturation; then 40 cycles of 15 sec at 95° C. for denaturation, 30 sec at 65° C. for annealing, and 30 sec at 75° C. for extension. Primers used are as follows: β-actin (Actb), forward 5′-[…]-3′ (SEQ ID NO: 5), reverse 5′-[…]-3′ (SEQ ID NO: 6); ZO-1 (Tjp1), forward 5′-[…]-3′ (SEQ ID NO: 7), reverse 5′-[…]-3′ (SEQ ID NO: 8), Ocln, forward 5′-[…]-3′ (SEQ ID NO: 9), reverse 5′-[…]-3′ (SEQ ID NO: 10); Lyz1, forward 5′-ATGGCTACCGTGGTGTCAAG-3′ (SEQ ID NO: 11), reverse 5′-CGGTCTCCACGGTTGTAGTT-3′ (SEQ ID NO: 12); Tff3, forward 5′-TAATGCTGTTGGTGGTCCTG-3′ (SEQ ID NO: 13), reverse 5′-CAGCCACGGTTGTTACACTG-3′ (SEQ ID NO: 14). All samples were normalized to β actin expression. Gene expression levels are depicted as fold change relative to the control group.
(§4) Immunocytochemistry followed earlier work (Pearce et al., 2018). Briefly, organoids were extracted from Matrigel by using cell recovery solution (Corning, Cat. No. 354253), processed then fixed in 4% paraformaldehyde for 15 min and dehydrated with 70% ethanol and kept in 4° C. until embedded in paraffin. On the day of embedding, organoids were gently spun down to a pellet (250 g for 5 min), then the supernatant was removed, the pellet resuspended in agarose and embedded in paraffin. […]

[4] = tested on: mouse intestinal organoids; experiment: Organoid permeability assay with 4 kDa FITC-dextran, LPS with or without metabolites; assay type: cell-based; conditions: ex vivo organoids
Description: as §1, §2
Permeability assays followed earlier work (Pearce et al., 2018). Briefly, all media were removed and then organoid were incubated with CCM containing 4 kDa FITC-dextran (Sigma-Aldrich, St. Louis, MO, Cat. #46944) at a final concentration of 1.25 µM for 30 minutes at 37° C. and at 5% CO2. […] A fluorescent microscope (Nikon Eclipse TI, NY) at a 10× magnification was used to observe and capture the fluorescence within the lumen of the organoids. Using the same area as the lumen, three different background samples are measured randomly around the lumen. The three background samples measured are averaged and then subtracted from the measured fluorescence of the lumen. […] The quantification of the fluorescence was conducted using the ImageJ 1.53 (NIH, Bethesda, MD).

[5] = tested on: polarized human Caco-2-BBE cells; experiment: Nitric oxide production in polarized Caco-2-BBE cells; assay type: cell-based; conditions: 24 h exposure, 5% LGG supernatant or single metabolites
Description: Lastly, NOS2 activity was analyzed in cells treated with an LGG supernatant (orange bar, FIG. 15).

[6] = tested on: Tff3 and Lyz1 (goblet and Paneth cells); experiment: Organoids: goblet and Paneth cell transcripts (Tff3, Lyz1) and cell numbers; assay type: cell-based, mouse; conditions: enteroids
Description: as §2, §3, §4

[7] = tested on: human-derived Caco-2 cells; experiment: In vitro transwell screening in Caco-2 cells, barrier disrupted by Clostridium difficile toxin (TEER and FITC-dextran permeability); assay type: cell-based; conditions: applied in the basolateral compartment, TOX
[8] = tested on: ileal transcriptome; experiment: Germ-free mice monocolonized with LGG, trp+ or trp− diet: bulk RNA-sequencing of ileum; assay type: in vivo, mouse
Description: Gnotobiotic study. After 5 days of acclimatization under GF conditions, two cages of GF mice (n=10) were fed with a trp-free diet and another 2 cages with a trp-sufficient diet. Purified diets were sterilized by double-irradiation (Research Diets, New Brunswick, NJ) then stored in −80° C. Two weeks afterward, five mice from the trp-deficient and five from trp-sufficient were gavaged with LGG and the remaining mice with sterile PBS. Body weight and food intake were recorded weekly. Fecal pellets were collected aseptically one week before, then one and three weeks post inoculation, then stored (−80° C.) for later analysis. Feces were also collected twice a week then analyzed immediately to monitor gnotobiotic status. All mice were sacrificed three weeks post inoculation, then serum, liver, ileum and colon collected.
For LGG colonization, one cage of GF trp− mice and one cage of GF trp+ were orally gavaged with 200 μl of LGG (10^8 CFU/ml) in sterile PBS (LGG trp− and LGG trp+, respectively) while control GF received 200 μl sterile PBS (PBS trp− and PBS trp+).
Total RNA was isolated from mouse ileum then purified with RNeasy Plus universal kit (Qiagen, Hilden, Germany) following manufacturer's instructions. […] For global assessment of mouse RNA levels, total RNA was subjected to two rounds of poly(A) selection using oligo (dT) 25 magnetic beads (New England Biolabs [NEB], Ipswich, MA). Illumina-compatible RNA-seq libraries were constructed using the NEBNext Ultra II RNA library prep with sample purification beads (Cat. No. E7775) and NEB Next Multiplex Oligos for Illumina (dual index primers set 1; Cat. No. E7600) according to the manufacturer's instructions. Poly(A) selection and library quality were assessed using TapeStation 2200 (Agilent Technologies, Santa Clara, CA), and libraries were quantified using Qubit 4.0 fluorometer (Thermo Fisher, Waltham, MA). The prepared libraries were sequenced on an Illumina NextSeq 500 instrument (Illumina, San Diego, CA). CLC Genomics Workbench version 20.0.4 (Qiagen, Venlo, Netherlands) was used for RNA-seq analysis. […]

## NC(=NCCC[C@H](N)C(=O)O)N[C@@H](CC(=O)O)C(=O)O [L-arginino-succinate, L-argininosuccinic acid]
[1]
  DSS-induced leaky gut (overall): exacerbates
  E-cad abundance and localization in colonic epithelial cells: appeared dispersed
  Ocln expression in colonic epithelium: reduction in Ocln expression
[1]; vs DSS alone
  body weight: greater tendency to lose weight
[2]
  body weight loss and recovery in DSS leaky gut model: exacerbated the effects of DSS, and significantly delayed recovery; also recorded: exacerbates weight loss
[3]; metabolite alone, 48 hr
  TJ expression: significantly reduced TJ expression
[4]
  disruption of the gut barrier, fluorescence microscopy (FIG. 11M): disrupted the gut

## NC(=O)NCCC[C@H](N)C(=O)O [citrulline]
[5]
  NO production (fluorescence intensity): NO production increases

## NCCC(=O)N[C@@H](Cc1cnc[nH]1)C(=O)O [Carnosine, carnosine]
[3]; ex vivo, in the presence of the barrier disruptor
  gene expression of Ocln: increased gene expression of Ocln
[3]; in the presence of LPS (1 μg/mL), 48 hr
  TJ expression at the protein and mRNA levels: increased TJ expression
[6]
  goblet and Paneth cell transcripts and cell numbers: reduced goblet and Paneth cell transcripts as well as cell numbers
[4]
  disruption of the gut barrier, fluorescence microscopy (FIG. 11M): prevented disruption of the gut barrier

## N=C(N)NCCC[C@H](N)C(=O)O [Arginine]
[5]
  NO production (fluorescence intensity): NO production increases

## O=Cc1c[nH]c2ccccc12 [Indole-3-carboxaldehyde]
[7]
  TEER, indole metabolites: more effective when applied in this compartment than in the luminal

## N[C@@H](Cc1c[nH]c2ccccc12)C(=O)O [Tryptophan]
[8]; GF mice
  number of ileal transcripts affected by dietary trp: 3917
[8]; LGG mono-associated mice
  number of ileal transcripts affected by dietary trp: 5315
[8]; mouse, in vivo
  number of transcripts affected solely by dietary trp with or without LGG: 1496
